Test results taken from paper PMC4912613, “A broad analysis of resistance development in the malaria parasite” (Nature Communications, 2016).

Legend:
[1] = test system: DHODH (E182D, parent 3D7); experiment: Cross-resistance EC50 assay, DHODH; type: cell-based; conditions: Plasmodium falciparum; SYBR green 72 hour assay; synchronized parasites; 384-well format; strain DHODH (3D7 parent)
Excerpt: (§1) To evaluate potential overlapping activity against known antimalarial drug targets, we performed dose-response studies with each compound against our assembled set of drug-resistant lines and their corresponding parents, in an asexual blood stage proliferation assay (Table 1). Comparisons were made to the drug-sensitive strain 3D7 when a parent was unavailable (TM90C2A, W2 and Dd2). As laboratories conducted EC50 assays with different strains and protocols, all comparisons were made between assays from the same laboratory and under the same assay conditions. Compounds displaying >5-fold EC50 shifts relative to the parent or sensitive strain were flagged as having potentially non-novel targets. Average fold shifts per strain ranged from 0.82 to 2.34, with a median of 1.23 indicating there was not common resistance to any one resistant clone. No resistance patterns were observed when classifying the compounds based on chemical structure, but this was not surprising given the diversity of compounds chosen. On the other hand, given that these confirmed compounds were derived from larger unconfirmed hit lists to which some filtration criteria may have been applied (for example, elimination of obvious dihydrofolate reductase inhibitors[32]), some[10][11][12][13] pre-existing bias may exist in the set. […]
(§2) Alternatively, a SYBR Green-based proliferation approach was used for the 72-h assay, as previously described. Briefly, a culture of either synchronized or asynchronous parasitized RBCs (0.3% parasitemia and 4% haematocrit) in screening medium (identical to supplemented medium above except no serum was added) was exposed to serial drug dilutions. Plates were incubated at 37 °C and gassed with 93% N2, 4% CO2 and 3% O2 for 72 h. Following incubation, 10 × SYBR Green I (Invitrogen; supplied in 10,000 × concentration) in lysis buffer ([…], 5 mM EDTA, 0.16% Saponin wt per vol and 1.6% Triton X vol per vol) was added to the wells and the plates were incubated overnight at room temperature before plate reading. EC50 assays were repeated three times, taking the average EC50 value from each assay set, and removing any outliers using a single iteration of Grubbs' test, eliminating values with z-scores above the critical z-value (α=0.05). The raw EC50 values for synchronized parasites assayed in a 384-well format are listed in Supplementary Data 4. The raw EC50 values for asynchronous parasites assayed in a 96 or 1536-well format are listed in Supplementary Data 5.
(§3) EC50 values for each strain were compared with those of the corresponding parent strain to determine fold-shift changes and identify resistance. To minimize the cause variance between assays, all comparisons were conducted between strains assayed under identical conditions. A one-way ANOVA followed by a Dunnet's post-test was conducted in GraphPad Prism to identify significant changes between the parent and resistant strain.

[2] = test system: P. berghei exoerythrocytic forms; experiment: Liver-stage P. berghei hepatocyte invasion and development assay (luminescence, HepG2); type: cell-based, Plasmodium berghei; conditions: for EC50: Plasmodium berghei, HepG2, 48 h, P. berghei sporozoites, read-out: Liver Stage EC50; for EC50 fold shift compared to asexual stage: Liver Stage EC50: liver stage EC50 / 3D7 EC50
In short: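 Duplicate 12-point dose curves, starting at 5 μM or 50 μM, gave EC50s for both parasite and host toxicity. Compound was added to human HepG2 hepatocytes 2 h before infection with freshly dissected P. berghei sporozoites. Surviving liver-stage forms were quantified by luminescence after 48 h.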

[3] = test system: CYTb-G131S (cytb G131S, parent Dd2); experiment: Cross-resistance EC50 assay, CYTb-G131S; type: cell-based, Plasmodium falciparum; conditions: Plasmodium falciparum; SYBR green 72 hour assay; synchronized parasites; 384-well format; strain CYTb:G131S (Dd2 parent)
Excerpt: as §1, §2, §3

P. falciparum = experiment: Rate of killing (parasite viability) assay; type: cell-based, Plasmodium falciparum; conditions: profile compared with chloroquine, pyrimethamine, atovaquone; 48 h treatment
In short: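 Parasites exposed to compound for 48 h, then washed and given fresh labelled erythrocytes; invasion used as viability surrogate. Double-stained erythrocytes (RBC plus parasite DNA label) counted to give percent survival; time-course profiles benchmarked against chloroquine, pyrimethamine and atovaquone.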

[4] = test system: ATQ-R4 (cytb M133I and L144S, parent 3D7); experiment: Cross-resistance EC50 assay, ATQ-R4; type: cell-based, Plasmodium falciparum; conditions: Plasmodium falciparum, 3D7; SYBR green 72 hour assay; asynchronized parasites; 96-well or 1536-well format; ATQ-R4
Excerpt: as §1, §2, §3

| Structure (SMILES) | EC50 [1] | EC50 [2] | EC50 fold shift compared to asexual stage: Liver Stage EC50 [2] | EC50 [3] | Killing Rate (P. falciparum) | EC50 [4] |
| --- | --- | --- | --- | --- | --- | --- |
| COc1ccc(N2CCN(C(CNC(=O)C3CCCCC3)c3ccc4c(c3)OCO4)CC2)cc1 (stereo not drawn) [MMV019662] | 860 nM | 18900 nM | 55.47 | 583 nM | ATQ (slow) | 0.716 µM |
| Cc1nc2ccc3ccc(CNc4ccc(C(=O)CC(CCC(=O)O)C(=O)O)cc4)cc3c2c(=O)[nH]1.Cl (stereo not drawn) [MMV027634] | 33 nM | > 50000 nM | > 2170 | 52 nM | ATQ (slow) | 0.194 µM |
| CCCCCCCN(Cc1ccc(OC(C)(C)C(=O)OCC)cc1)C(=O)Nc1ccc(Cl)cc1OCC [MMV021735] | 460 nM | 2690 nM | 7.03 | 498 nM | ATQ (slow) | 0.056 µM |
